Laboratory results: CN109329202A, “一种有效抑制n-羟乙酰神经氨酸合成的方法” (Guizhou University, priority 2018, dated 2019)

Test system: Neu5Gc synthesis [Neu5Gc的合成]
Test: Neu5Gc degradation in rat muscle, liver and kidney after 30 d oral gavage (HPLC after DMB derivatisation)
Assay type: in vivo
Conditions: male SD rats, oral gavage 200 mg/(kg.d) in 0.5% sodium carboxymethylcellulose, vs blank control (HPLC peak area)

SMILES: O=c1c(O)c(-c2ccc(O)cc2)oc2cc(O)cc(O)c12 [山奈酚]
- Neu5Gc degradation rate, kidney sample (kidney): 17.55%
- Neu5Gc degradation rate, liver sample (liver): 6.315%
- Neu5Gc degradation rate, meat sample (thigh muscle): 13.356%
